According to patent US8426437B2, “Pyrroloquinoline derivatives and their use as protein kinases inhibitors” (Pierre Fabre Medicament, priority 2005, dated 2013):

Assays:
Hck (h) = molecular target: T1, Hck (h) (Homo sapiens, UniProt P08631); assay: Upstate kinase panel: Hck; assay type: biochemical; settings: compound 10 μM, 10 μM ATP, read-out: % inhibition at 10 μMol
T1 construct: purchased Upstate
Method: (§1) These kinases are produced by Upstate and screened according to the respective protocols indicated by the supplier (http://www.upstate.com/features/kp_protocols.asp). Examples 1, 12, 166 and 238 were tested at a concentration of 20 μM, 10 μM, 1 μM and 1 μM respectively in the presence of 10 μM of ATP for examples 1 and 12 and at the concentrations of ATP shown in parentheses for examples 166 and 238. The results shown in Table VII correspond to percentage inhibition of the kinase tested in the presence of the compound, relative to a control effected without the compound.

TrkA = molecular target: T2, TrkA (Homo sapiens, UniProt P04629); assay: Inhibition of kinase TrkA (Kinase-Glo); assay type: biochemical; settings: TrkA 4 μg/ml, 30 μM ATP, two hours at 30° C.
T2 construct: purchased Upstate 14-571
Method in brief: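 TrkA (4 μg/ml) was incubated with 1 mg/ml poly-EY and 30 μM ATP in MOPS pH 7 buffer with Mg acetate, DTT and vanadate, compounds at 10 nM–30 μM final, for 2 h at 30 °C. Remaining ATP was quantified by Kinase-Glo luminescence.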

ALK = ALK (Homo sapiens, UniProt Q9UM73); assay: Inhibition of kinase ALK (PLCγ1-GST substrate, anti-phosphotyrosine ELISA); assay type: biochemical; settings: ALK 180 ng/ml, 250 μM ATP, 30 minutes at 30° C.
Method: Incubation is carried out for 30 minutes at 30° C. with agitation.
The signal is read in luminescent mode using a luminometer.

TrkB (h) = molecular target: T3, TrkB (h) (Homo sapiens, UniProt Q16620); assay: Upstate kinase panel: TrkB; assay type: biochemical; settings: compound 10 μM, 10 μM ATP, read-out: % inhibition at 10 μMol
T3 construct: purchased Upstate
Method: as §1

FGFR1 (h) = molecular target: T4, FGFR1 (h) (Homo sapiens, UniProt P11362); assay: Upstate kinase panel: FGFR1; assay type: biochemical; settings: compound 1 μM, ATP (200), read-out: % inhibition at 1 μMol
T4 construct: purchased Upstate
Method: as §1

A498 = assay: WST test, inhibition of proliferation of A498; assay type: cell-based; settings: Homo sapiens, 96 h; line A498, tissue of origin Kidney; four days of incubation, WST-1
Method: (§2) The inhibition of the proliferation of cell lines by certain compounds of the invention was tested. […] In the example, the lines used were derived from cancers of the uterus, central nervous system, colon, stomach, head and neck, lung, breast, pancreas, and kidney, as well as from lymphoma, myeloma, pleura, or from melanoma.
(§3) The WST test for measuring cell proliferation and viability (Roche Applied Science) is based on cleavage of a tetrazolium salt by the mitochondrial dehydrogenases in viable cells.
(§4) After four days of incubation of the compounds with the cell line, 14 μl of WST-1 reagent is added to each well and the plates are incubated for four hours at 37° in humid atmosphere at 5% CO2. The level of formazan formed is then determined by spectrophotometry at 450 nm whereas a reference is measured at 650 nm. A control with untreated cells is represented by six wells per plate and the group of treated cells is produced in triplicate for each of the concentrations measured.
(§5) The compounds are tested at five concentrations between 10 nM and 100 μM and two cytotoxic agents are used as controls: adriamycin and 5-fluorouracil.

panel of cell lines = assay: Inhibition of the proliferation of a panel of cell lines (WST test); assay type: cell-based; settings: lines of Table XI, four days of incubation
U251 = assay: WST test, inhibition of proliferation of U251; assay type: cell-based; settings: Homo sapiens, U-251, 96 h; line U251, tissue of origin CMS; four days of incubation, WST-1
Method: as §2, §3, §4, §5

H69 = assay: WST test, inhibition of proliferation of H69; assay type: cell-based; settings: Homo sapiens, NCI-H69, 96 h; line H69, tissue of origin Lung (SCLC); four days of incubation, WST-1
Method: as §2, §3, §4, §5

MDA-453 = assay: WST test, inhibition of proliferation of MDA-453; assay type: cell-based; settings: 96 h; line MDA-453, tissue of origin Breast; four days of incubation, WST-1
Method: as §2, §3, §4, §5

MLCK (h) = assay: Upstate kinase panel: MLCK; assay type: biochemical, human; settings: compound 1 μM, ATP (10)
Method: as §1

MDA-231 = assay: WST test, inhibition of proliferation of MDA-231; assay type: cell-based; settings: Homo sapiens, MDA-MB-231, 96 h; line MDA-231, tissue of origin Breast; four days of incubation, WST-1
Method: as §2, §3, §4, §5

SKUT1B = assay: WST test, inhibition of proliferation of SKUT1B; assay type: cell-based; settings: Homo sapiens, 96 h; line SKUT1B, tissue of origin Uterus; four days of incubation, WST-1
Method: as §2, §3, §4, §5

MDA-468 = assay: WST test, inhibition of proliferation of MDA-468; assay type: cell-based; settings: 96 h; line MDA-468, tissue of origin Breast; four days of incubation, WST-1
Method: as §2, §3, §4, §5

1752L = assay: WST test, inhibition of proliferation of 1752L; assay type: cell-based; settings: 96 h; line 1752L, tissue of origin Pleuromesothelium; four days of incubation, WST-1
Method: as §2, §3, §4, §5

RAJI = assay: WST test, inhibition of proliferation of RAJI; assay type: cell-based; settings: Homo sapiens, 96 h; line RAJI, tissue of origin Lymphoma; four days of incubation, WST-1
Method: as §2, §3, §4, §5

TrkA (h) = molecular target: T5, TrkA (h) (Homo sapiens, UniProt P04629); assay: Upstate kinase panel: TrkA; assay type: biochemical; settings: compound 20 μM, 10 μM ATP, read-out: % inhibition at 20 μMol
T5 construct: purchased Upstate
Method: as §1

Met (h) = molecular target: T6, Met (h) (Homo sapiens, UniProt P08581); assay: Upstate kinase panel: Met; assay type: biochemical; settings: compound 20 μM, 10 μM ATP, read-out: % inhibition at 20 μMol
T6 construct: purchased Upstate
Method: as §1

PIM-1 (h) = molecular target: T7, PIM-1 (h) (Homo sapiens, UniProt P11309); assay: Upstate kinase panel: PIM-1; assay type: biochemical; settings: compound 20 μM, 10 μM ATP, read-out: % inhibition at 20 μMol
T7 construct: purchased Upstate
Method: as §1

T7 sequence (P11309 whole entry): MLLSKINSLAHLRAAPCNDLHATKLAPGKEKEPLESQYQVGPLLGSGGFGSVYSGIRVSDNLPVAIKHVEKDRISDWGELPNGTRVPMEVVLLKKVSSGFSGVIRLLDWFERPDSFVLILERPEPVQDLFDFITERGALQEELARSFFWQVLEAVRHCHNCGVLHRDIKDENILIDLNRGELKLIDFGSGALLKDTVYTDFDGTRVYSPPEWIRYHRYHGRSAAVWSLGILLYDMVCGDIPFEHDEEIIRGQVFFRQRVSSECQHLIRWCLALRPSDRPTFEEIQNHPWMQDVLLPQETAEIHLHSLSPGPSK
T4 sequence (P11362 22-822): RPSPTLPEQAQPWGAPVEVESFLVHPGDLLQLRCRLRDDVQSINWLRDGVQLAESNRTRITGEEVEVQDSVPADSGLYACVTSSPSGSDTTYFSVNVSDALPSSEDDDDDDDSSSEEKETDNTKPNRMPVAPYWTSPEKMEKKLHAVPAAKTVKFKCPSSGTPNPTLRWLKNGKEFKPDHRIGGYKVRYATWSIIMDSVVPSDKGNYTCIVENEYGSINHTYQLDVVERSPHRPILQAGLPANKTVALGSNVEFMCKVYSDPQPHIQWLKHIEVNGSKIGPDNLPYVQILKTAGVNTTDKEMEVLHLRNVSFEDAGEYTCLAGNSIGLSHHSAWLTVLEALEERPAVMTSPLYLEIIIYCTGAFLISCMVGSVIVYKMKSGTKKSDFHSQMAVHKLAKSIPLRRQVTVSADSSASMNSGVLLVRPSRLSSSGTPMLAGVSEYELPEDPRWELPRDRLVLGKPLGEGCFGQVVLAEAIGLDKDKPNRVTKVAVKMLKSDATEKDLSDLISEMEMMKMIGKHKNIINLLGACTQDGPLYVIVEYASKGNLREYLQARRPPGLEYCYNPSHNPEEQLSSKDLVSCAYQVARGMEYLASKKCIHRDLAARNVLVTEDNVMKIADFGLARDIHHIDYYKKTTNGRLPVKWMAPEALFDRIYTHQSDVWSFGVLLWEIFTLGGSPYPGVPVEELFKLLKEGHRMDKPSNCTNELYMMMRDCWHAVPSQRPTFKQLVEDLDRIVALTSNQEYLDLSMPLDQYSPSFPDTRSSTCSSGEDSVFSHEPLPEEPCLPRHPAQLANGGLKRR
T1 sequence (P08631 whole entry): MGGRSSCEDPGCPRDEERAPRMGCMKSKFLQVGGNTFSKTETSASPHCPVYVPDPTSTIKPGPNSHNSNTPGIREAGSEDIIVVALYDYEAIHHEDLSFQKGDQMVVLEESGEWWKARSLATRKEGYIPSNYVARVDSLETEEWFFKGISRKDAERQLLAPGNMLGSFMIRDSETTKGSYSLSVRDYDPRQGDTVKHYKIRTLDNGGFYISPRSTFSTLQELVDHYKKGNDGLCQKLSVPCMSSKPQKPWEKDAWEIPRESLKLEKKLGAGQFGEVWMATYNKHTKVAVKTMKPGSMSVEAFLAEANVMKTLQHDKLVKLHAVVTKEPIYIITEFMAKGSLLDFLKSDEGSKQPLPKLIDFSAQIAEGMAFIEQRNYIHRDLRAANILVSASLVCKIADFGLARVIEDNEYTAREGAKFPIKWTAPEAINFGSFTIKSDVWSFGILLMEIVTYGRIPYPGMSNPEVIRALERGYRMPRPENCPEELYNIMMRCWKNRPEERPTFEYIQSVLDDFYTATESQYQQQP
ALK, sequence (Q9UM73 19-1620, species assumed): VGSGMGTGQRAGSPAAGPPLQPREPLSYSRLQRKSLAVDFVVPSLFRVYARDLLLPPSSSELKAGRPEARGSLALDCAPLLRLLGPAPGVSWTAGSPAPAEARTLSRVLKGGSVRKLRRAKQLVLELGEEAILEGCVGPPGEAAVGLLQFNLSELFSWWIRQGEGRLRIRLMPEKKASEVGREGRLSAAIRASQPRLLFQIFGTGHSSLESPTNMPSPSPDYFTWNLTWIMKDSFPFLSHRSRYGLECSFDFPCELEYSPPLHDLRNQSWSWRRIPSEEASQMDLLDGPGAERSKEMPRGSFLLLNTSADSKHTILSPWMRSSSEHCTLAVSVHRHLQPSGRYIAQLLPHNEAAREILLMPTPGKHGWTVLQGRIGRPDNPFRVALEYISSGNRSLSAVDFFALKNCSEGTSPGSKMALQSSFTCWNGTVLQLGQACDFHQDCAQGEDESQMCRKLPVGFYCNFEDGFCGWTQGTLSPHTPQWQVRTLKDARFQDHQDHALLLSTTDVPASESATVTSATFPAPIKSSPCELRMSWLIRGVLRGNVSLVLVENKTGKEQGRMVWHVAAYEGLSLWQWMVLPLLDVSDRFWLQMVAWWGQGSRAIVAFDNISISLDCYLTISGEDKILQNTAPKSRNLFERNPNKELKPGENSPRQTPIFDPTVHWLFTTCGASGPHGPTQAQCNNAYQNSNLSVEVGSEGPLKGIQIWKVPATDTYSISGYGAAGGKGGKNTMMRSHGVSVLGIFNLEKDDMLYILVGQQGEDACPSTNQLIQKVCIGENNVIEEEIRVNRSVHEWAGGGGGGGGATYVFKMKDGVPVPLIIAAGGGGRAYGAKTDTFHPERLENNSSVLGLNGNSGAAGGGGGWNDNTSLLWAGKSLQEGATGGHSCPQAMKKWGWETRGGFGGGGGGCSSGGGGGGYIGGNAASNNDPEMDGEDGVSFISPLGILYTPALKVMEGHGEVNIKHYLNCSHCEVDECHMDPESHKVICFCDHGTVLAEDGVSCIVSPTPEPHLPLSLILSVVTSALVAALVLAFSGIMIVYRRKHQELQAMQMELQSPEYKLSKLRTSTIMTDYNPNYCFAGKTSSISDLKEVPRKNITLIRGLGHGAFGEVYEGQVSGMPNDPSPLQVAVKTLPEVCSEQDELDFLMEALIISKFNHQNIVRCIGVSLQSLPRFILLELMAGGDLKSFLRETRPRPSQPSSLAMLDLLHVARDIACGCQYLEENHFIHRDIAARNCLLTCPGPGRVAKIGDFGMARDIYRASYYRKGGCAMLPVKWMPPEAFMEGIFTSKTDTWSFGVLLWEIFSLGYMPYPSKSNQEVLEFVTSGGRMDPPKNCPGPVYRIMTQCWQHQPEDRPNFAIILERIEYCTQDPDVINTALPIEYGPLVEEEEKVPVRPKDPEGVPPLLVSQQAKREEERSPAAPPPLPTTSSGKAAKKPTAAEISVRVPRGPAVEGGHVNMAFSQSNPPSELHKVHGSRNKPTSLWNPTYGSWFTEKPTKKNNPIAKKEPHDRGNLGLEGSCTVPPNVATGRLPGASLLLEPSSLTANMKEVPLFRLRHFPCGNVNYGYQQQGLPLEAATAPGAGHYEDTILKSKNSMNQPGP
T3 sequence (Q16620 32-822): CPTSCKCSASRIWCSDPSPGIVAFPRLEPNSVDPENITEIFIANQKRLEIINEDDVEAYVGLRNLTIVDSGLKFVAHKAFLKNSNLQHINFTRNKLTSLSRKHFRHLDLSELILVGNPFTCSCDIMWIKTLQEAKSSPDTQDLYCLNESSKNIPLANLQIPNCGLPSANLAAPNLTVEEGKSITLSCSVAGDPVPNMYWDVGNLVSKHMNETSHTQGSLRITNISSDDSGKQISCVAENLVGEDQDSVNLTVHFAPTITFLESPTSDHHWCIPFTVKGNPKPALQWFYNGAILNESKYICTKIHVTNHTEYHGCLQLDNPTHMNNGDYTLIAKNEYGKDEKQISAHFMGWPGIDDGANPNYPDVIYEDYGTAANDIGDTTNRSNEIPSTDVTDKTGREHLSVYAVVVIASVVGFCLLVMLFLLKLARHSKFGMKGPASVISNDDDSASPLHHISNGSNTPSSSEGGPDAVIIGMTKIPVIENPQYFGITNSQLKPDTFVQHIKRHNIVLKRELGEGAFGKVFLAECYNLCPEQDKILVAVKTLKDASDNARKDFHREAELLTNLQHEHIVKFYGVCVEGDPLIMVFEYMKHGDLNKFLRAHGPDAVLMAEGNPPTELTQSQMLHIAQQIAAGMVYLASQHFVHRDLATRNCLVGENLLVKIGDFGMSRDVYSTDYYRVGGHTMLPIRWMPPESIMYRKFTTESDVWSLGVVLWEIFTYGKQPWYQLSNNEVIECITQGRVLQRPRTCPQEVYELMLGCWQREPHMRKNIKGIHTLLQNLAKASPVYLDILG
T2 sequence (P04629 33-796): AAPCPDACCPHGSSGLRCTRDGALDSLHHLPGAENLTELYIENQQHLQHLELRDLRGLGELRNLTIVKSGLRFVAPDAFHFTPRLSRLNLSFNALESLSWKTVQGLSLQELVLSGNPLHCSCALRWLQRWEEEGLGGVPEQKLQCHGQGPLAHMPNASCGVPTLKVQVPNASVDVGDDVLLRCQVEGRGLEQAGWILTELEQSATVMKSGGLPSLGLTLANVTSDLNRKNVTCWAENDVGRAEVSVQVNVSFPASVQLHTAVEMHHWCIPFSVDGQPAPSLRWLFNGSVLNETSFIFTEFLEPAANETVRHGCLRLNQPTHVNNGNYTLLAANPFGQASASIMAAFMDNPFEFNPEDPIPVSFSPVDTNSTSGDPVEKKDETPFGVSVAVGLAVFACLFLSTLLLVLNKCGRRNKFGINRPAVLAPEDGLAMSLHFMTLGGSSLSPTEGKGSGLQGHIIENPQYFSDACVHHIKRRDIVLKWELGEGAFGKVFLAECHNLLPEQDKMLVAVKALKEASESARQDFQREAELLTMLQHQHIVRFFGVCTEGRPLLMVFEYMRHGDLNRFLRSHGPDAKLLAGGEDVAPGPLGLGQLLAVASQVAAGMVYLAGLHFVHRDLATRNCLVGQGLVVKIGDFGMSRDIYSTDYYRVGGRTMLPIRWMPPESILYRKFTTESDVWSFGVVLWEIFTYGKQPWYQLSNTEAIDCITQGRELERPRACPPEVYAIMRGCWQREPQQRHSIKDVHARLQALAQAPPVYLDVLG
T5 sequence (P04629 33-796): as above

CCOC(=O)c1c[nH]c2c(=O)[nH]c3ccc(S(=O)(=O)Nc4ccc(F)cc4)cc3c12 [Compound 12, 8-(4-Fluorophenylsulfamoyl)-4-oxo-4,5-dihydro-3H-pyrrolo[2,3-c]quinoline-1-ethyl carboxylate]
inhibition at 10 µM (Hck (h)): 91%
IC50 (TrkA): 1 to 10 µM
IC50 (ALK): 100 to 1000 nM
inhibition at 10 µM (TrkB (h)): 98%

CCOC(=O)c1c[nH]c2c(=O)[nH]c3ccc(-c4cccc(S(C)(=O)=O)c4)cc3c12 [Compound 238, 8-(3-Methanesulfonyl-phenyl)-4-oxo-4,5-dihydro-3H-pyrrolo[2,3-c]quinoline-1-ethyl carboxylate]
inhibition at 1 µM (FGFR1 (h)): 51%
IC50 (A498): 49 µM
inhibition of proliferation of cell lines (in words) (panel of cell lines): inhibition of proliferation
IC50 (U251): 33 µM
IC50 (H69): 500 nM
IC50 (MDA-453): 7 µM
% inhibition at 1 μMol (MLCK (h)): 21%
IC50 (MDA-231): 41 µM
IC50 (SKUT1B): 33 µM
IC50 (MDA-468): 38 µM
IC50 (1752L): 35 µM
IC50 (RAJI): 34 µM

CCOC(=O)c1c[nH]c2c(=O)[nH]c3ccccc3c12 [Compound 1, 4-Oxo-4,5-dihydro-3H-pyrrolo[2,3-c]quinoline-1-ethyl carboxylate]
inhibition at 20 µM (TrkA (h)): 97%
inhibition at 20 µM (Met (h)): 52%
inhibition at 20 µM (PIM-1 (h)): 92%
